Results reported in patent US7411002B2, “Polycationic sulfonamides and use thereof” (priority 2006, dated 2008).

Legend:
[1] = test system: LPS-induced lethality in CF-1 mice; test: Mouse lethality assay (D-galactosamine-sensitized mice, supralethal LPS challenge); assay type: in vivo; settings: FIG. 9; for mice protected from LPS lethality: 200 μg/mouse compound i.p., supralethal 200 ng LPS challenge, lethality at 24 h
Excerpt: Compound MQTS 2358 represents spermine-sulfonamide Series A (SPM). Compound MQTS 2383 represents homologated spermine-sulfonamide Series B (HOMO-SPM). Compound MQTS 2389 represents branched homologated spermine-sulfonamide Series D (BRANCHED-HOMO-SPM). Also included in FIG. 9 are positive control compounds MQTS 3938 and MQTS 3942 (L-Lys(C18-alkyl)-spermine and D-Lys(C18-alkyl)-spermine, respectively) previously reported.^60 As shown in this figure, i.p. dosing with these compounds affords significant protection from super-lethal challenges with LPS in this model. Dosages of 200 μg/mouse) protected 5 out of 5 mice with all compounds except MQT 2389 which appears to have toxic effects above 50 μg/mouse dosages. Furthermore, treatment with lower dosages of these compounds also affords significant protection from the toxic effects of LPS.
Mouse lethality experiments: Female, outbred, 9- to 11-week-old CF-1 mice (Charles River, Wilmington, Mass.) weighing 22-28 g are used as described elsewhere.^71 Upon arrival, the mice are allowed to acclimatize for a week prior to experimentation, housed 5 per cage in a controlled environment at the AALAC-accredited University of Kansas Animal Care Facility, and allowed access to mouse chow and water ad libitum. The animals are sensitized to the lethal effects of LPS by D-galactosamine.^74-76 The lethal dose causing 100% mortality (LD100) dose of the batch of LPS used (E. coli 0111:B4 procured from Sigma) is first determined by administering D-galactosamine (800 mg/kg) and LPS (0, 10, 20, 50, 100, 200 ng/mouse) as a single injection intraperitoneally (i.p.) in freshly prepared saline to batches of five animals in a volume of 0.2 ml. […] In experiments designed to test dose-response effects of the polycationic sulfonamides in affording protection against LPS-induced lethality, mice received graded doses of compound diluted in saline, i.p., in one flank, immediately before a supralethal (200 ng) LPS challenge, which is administered as a separate i.p. injection into the other flank. In experiments in which the temporal window of protection is to be examined, a fixed dose of 200 μg/mouse of compound is administered at various times, before, or after supralethal (200 ng/mouse) LPS challenge. Lethality is determined at 24 h post LPS challenge.

[2] = test system: LPS-induced nitric oxide production in murine macrophage J774A.1 cells; test: NO inhibition (Griess nitrite assay) in LPS-stimulated murine macrophage J774A.1 cells; assay type: cell-based; settings: Mus musculus, J774.A1, 10 ng/ml LPS, 16 h
Method: Assessment of neutralization of LPS toxicity: NO inhibition activity. Nitric oxide production is measured as total nitrite in murine macrophage J774A.1 cells using the Griess assay^70 as described previously.^71 J774A.1 cells are plated at ˜10^5/ml in a volume of 40 μl/well, in 384-well, flat-bottomed, cell culture treated microtiter plates and subsequently stimulated with 10 ng/ml lipopolysaccharide (LPS). Concurrent to LPS stimulation, serially diluted concentrations of test compounds are added to the cell medium and left to incubate for 16 h. Polymyxin B is used as reference compound in each plate. Positive-(LPS stimulation only) and negative-controls (J774A.1 medium only) are included in each experiment. Nitrite concentrations are measured by adding 40 μl of supernatant to equal volumes of Griess reagents (50 μl/well; 0.1% NED solution in ddH2O and 1% sulfanilamide, 5% phosphoric acid solution in ddH2O) and incubating for 15 minutes at room temperature in the dark. Absorbance at 535 nm is measured using a Molecular Devices Spectramax M2 multifunction plate reader (Sunnyvale, Calif.). Nitrite concentrations are interpolated from standard curves obtained from serially diluted sodium nitrite standards. IC50 values are determined for compounds that neutralize LPS inhibit NO production in a dose-dependent manner (Tables A-F). Results in this assay parallel those in the binding assay.

[3] = test system: LPS-induced NF-κB induction in human embryonic kidney 293 cells cotransfected with TLR4, CD14 and MD2; test: Inhibition of LPS induction of NF-κB (seAP reporter) in HEK 293 cells cotransfected with TLR4, CD14 and MD2; assay type: cell-based; settings: Homo sapiens, HEK293; inhibition of LPS-induced NF-κB induction, HEK 293 TLR4/CD14/MD2 reporter cells; read-out: NFκβ inhibition IC50 value
Excerpt: Assessment of Inhibition of Cytokine Induction (NF-κB): The inhibition of induction of NF-κB (a key transcripitional activator of the innate immune system, leading to uncontrolled cytokine release^72,73 which ultimately leads to multiple organ failure and the shock syndrome) is quantified using human embryonic kidney 293 cells cotransfected with TLR4 (LPS receptor), CD14 and MD2 (co-receptors), available from InvivoGen, Inc. (HEK-Bluetm, San Diego, Calif.), as per protocols provided by the vendor. Stable expression of secreted alkaline phosphatase (seAP) under control of NF-κB/AP-1 promoters is inducible by LPS, and extracellulare seAP in the supernatant is proportional to NF-κB induction. seAP is assayed spectrophotometrically using an alkaline phosphatase-specific chromogen at 620 nm using a rapid-throughput, automated protocol employing a Bio-Tek P2000 liquid handler. Results showing the ability of polycationic sulfonamide compounds to inhibit the induction of NF-κB by LPS are shown in Tables A-F.

[4] = Rapid-throughput BODIPY-TR cadaverine (BC) fluorescence displacement assay for binding affinity to LPS; settings: half-maximal effective displacement of BODIPY-TR cadaverine probe from LPS; 50 mM Tris buffer, pH 7.4; read-out: Binding affinity (BC displacement) ED50 value
Method: Rapid-throughput Fluorescence Displacement Assay for quantifying binding affinities to LPS. […] Polymyxin B (PMB), a peptide antibiotic known to bind and neutralize LPS^65 serves as the positive control and reference compound for every plate, enabling the quantitative assessment of repeatability and reproducibility (CV and Z′ factors) for the assay. Automated liquid handling is performed on a Precision 2000 automated microplate pipetting system, programmed using the Precision Power software, Bio-Tek Instruments Inc., VT, USA. Results are reported as half-maximal effective displacement of probe (ED50) (Tables A-F). In all experiments, Polymyxin B (PMB), a decapeptide antibiotic, known to bind and neutralize LPS,^66-69 is used as a reference compound.

Row | Compound | mice protected from LPS lethality [1] | IC50 [2] [nM] | IC50 [3] [nM] | EC50 [4] [µM] | dosage above which toxic effects appear ([1]; i.p. dosing in mouse lethality assay)
1 | CCCCCCCCCCCCCCCCS(=O)(=O)NCCCNCCCCNCCCN [MQTS 2358] | 5 out of 5 | 450 | 280 | 3.87 | 
2 | CCCCCCCCCCCCCCCCS(=O)(=O)NCCCNCCCNCCCCNCCCN [MQTS 2383] | 5 out of 5 | 120 | 200 | 4.71 | 
3 | CCCCCCCCS(=O)(=O)NCCCN(CCCNCCCNCCCCNCCCN)CCCNS(=O)(=O)CCCCCCCC [MQTS 2389, N^1-Bis[N-octanylsulfonyl-3-aminopropyl]-1,18-diamino-5,9,14-triazaoctadecane] |  | 320 | 300 | 2.62 | above 50 μg/mouse
4 | D-Lys(C18-alkyl)-spermine [MQTS 3942, reference compound] | 5 out of 5 |  |  |  | 
5 | L-Lys(C18-alkyl)-spermine [MQTS 3938, reference compound] | 5 out of 5 |  |  |  | 
